Measured values taken from ChEMBL document CHEMBL3885881, “DrugMatrix”.

Species: Rattus norvegicus
Assay: DrugMatrix - Regimen: Daily Repeat
Assay type: toxicity, organism-based, Sprague-Dawley
Parameters: regimen Daily Repeat, gender Male, age 6-8 weeks
Settings: in vivo, po, route oral GAVAGE, vehicle 100 % WATER; for ABSOLUTE BASOPHIL / ABSOLUTE EOSINOPHIL / ABSOLUTE LYMPHOCYTE / ABSOLUTE MONOCYTE / ABSOLUTE SEGMENTED NEUTROPHIL / BASOPHIL / EOSINOPHIL / ERYTHROCYTE COUNT / HEMATOCRIT / HEMOGLOBIN / LEUKOCYTE COUNT / LYMPHOCYTE / MEAN CORPUSCULAR HEMOGLOBIN / MEAN CORPUSCULAR HEMOGLOBIN CONCENTRATION / MEAN CORPUSCULAR VOLUME / MONOCYTE / NEUTROPHIL / NUCLEATED RED BLOOD CELLS / PLATELET COUNT: tissue Blood; for ALANINE AMINOTRANSFERASE / ALBUMIN / ALKALINE PHOSPHATASE / ASPARTATE AMINOTRANSFERASE / BLOOD UREA NITROGEN / CARBON DIOXIDE / CHLORIDE / CHOLESTEROL / CREATINE PHOSPHOKINASE / CREATININE / GLUCOSE / LACTATE DEHYDROGENASE / LIPASE / PHOSPHORUS / POTASSIUM / SODIUM / TOTAL BILIRUBIN / TOTAL PROTEIN / URIC ACID: tissue Plasma
[1] = 0 mg/kg, 72 h, dose level Control, time 3 day
[2] = 0 mg/kg, 120 h, dose level Control, time 5 day
[3] = […], 72 h, dose 0.025 mg/Kg, dose level Low, time 3 day
[4] = […], 72 h, dose 0.25 mg/Kg, dose level High, time 3 day

SMILES: C[C@@H]1C[C@@H]([C@H](O)CC2CC(=O)NC(=O)C2)C(=O)[C@@H](C)C1 [CYCLOHEXIMIDE]
- ABSOLUTE BASOPHIL [1]: 0 CELLS/uL
- ABSOLUTE EOSINOPHIL [1]: 25 CELLS/uL
- ABSOLUTE LYMPHOCYTE [1]: 14357 CELLS/uL
- ABSOLUTE MONOCYTE [1]: 456.33 CELLS/uL
- ABSOLUTE SEGMENTED NEUTROPHIL [1]: 1461.67 CELLS/uL
- BASOPHIL [1]: 0%
- EOSINOPHIL [1]: 0.17%
- ERYTHROCYTE COUNT [1]: 5.85 x10E6/uL
- HEMATOCRIT [1]: 37.62%
- HEMOGLOBIN [1]: 13.87 G/DL
- LEUKOCYTE COUNT [1]: 16.3 x10E3/uL
- LYMPHOCYTE [1]: 88%
- MEAN CORPUSCULAR HEMOGLOBIN [1]: 23.68 pg
- MEAN CORPUSCULAR HEMOGLOBIN CONCENTRATION [1]: 36.88 G/DL
- MEAN CORPUSCULAR VOLUME [1]: 64.23 fL
- MONOCYTE [1]: 2.83%
- NEUTROPHIL [1]: 9%
- NUCLEATED RED BLOOD CELLS [1]: 0 /100WBC
- PLATELET COUNT [1]: 1125.33 x10E3/uL
- ALANINE AMINOTRANSFERASE [1]: 49.67 u/L
- ALBUMIN [1]: 4.23 G/DL
- ALKALINE PHOSPHATASE [1]: 400.83 u/L
- ASPARTATE AMINOTRANSFERASE [1]: 89.17 u/L
- BLOOD UREA NITROGEN [1]: 16 mg/dL
- CARBON DIOXIDE [1]: 31.83 mmol/L
- CHLORIDE [1]: 99 MEQ/L
- CHOLESTEROL [1]: 76 mg/dL
- CREATINE PHOSPHOKINASE [1]: 777.67 u/L
- CREATININE [1]: 0.22 mg/dL
- GLUCOSE [1]: 158.33 mg/dL
- LACTATE DEHYDROGENASE [1]: 186.17 u/L
- LIPASE [1]: 9.33 u/L
- PHOSPHORUS [1]: 12.95 mg/dL
- POTASSIUM [1]: 7.01 MEQ/L
- SODIUM [1]: 141.53 MEQ/L
- TOTAL BILIRUBIN [1]: 0.18 mg/dL
- TOTAL PROTEIN [1]: 6.08 G/DL
- URIC ACID [1]: 1.77 mg/dL
- ABSOLUTE BASOPHIL [2]: 0 CELLS/uL
- ABSOLUTE EOSINOPHIL [2]: 0 CELLS/uL
- ABSOLUTE LYMPHOCYTE [2]: 8994.5 CELLS/uL
- ABSOLUTE MONOCYTE [2]: 122.33 CELLS/uL
- ABSOLUTE SEGMENTED NEUTROPHIL [2]: 666.5 CELLS/uL
- BASOPHIL [2]: 0%
- EOSINOPHIL [2]: 0%
- ERYTHROCYTE COUNT [2]: 5.74 x10E6/uL
- HEMATOCRIT [2]: 35.17%
- HEMOGLOBIN [2]: 13.28 G/DL
- LEUKOCYTE COUNT [2]: 9.78 x10E3/uL
- LYMPHOCYTE [2]: 92.33%
- MEAN CORPUSCULAR HEMOGLOBIN [2]: 23.15 pg
- MEAN CORPUSCULAR HEMOGLOBIN CONCENTRATION [2]: 37.8 G/DL
- MEAN CORPUSCULAR VOLUME [2]: 61.27 fL
- MONOCYTE [2]: 1.33%
- NEUTROPHIL [2]: 6.33%
- NUCLEATED RED BLOOD CELLS [2]: 0 /100WBC
- PLATELET COUNT [2]: 1117 x10E3/uL
- ALANINE AMINOTRANSFERASE [2]: 47.83 u/L
- ALBUMIN [2]: 4.33 G/DL
- ALKALINE PHOSPHATASE [2]: 414.5 u/L
- ASPARTATE AMINOTRANSFERASE [2]: 77.5 u/L
- BLOOD UREA NITROGEN [2]: 17 mg/dL
- CARBON DIOXIDE [2]: 32.33 mmol/L
- CHLORIDE [2]: 99.33 MEQ/L
- CHOLESTEROL [2]: 76.33 mg/dL
- CREATINE PHOSPHOKINASE [2]: 363.67 u/L
- CREATININE [2]: 0.25 mg/dL
- GLUCOSE [2]: 173.5 mg/dL
- LACTATE DEHYDROGENASE [2]: 129.33 u/L
- LIPASE [2]: 9.17 u/L
- PHOSPHORUS [2]: 11.52 mg/dL
- POTASSIUM [2]: 5.73 MEQ/L
- SODIUM [2]: 143.85 MEQ/L
- TOTAL BILIRUBIN [2]: 0.2 mg/dL
- TOTAL PROTEIN [2]: 6.43 G/DL
- URIC ACID [2]: 0.97 mg/dL
- ABSOLUTE BASOPHIL [3]: 0 CELLS/uL
- ABSOLUTE EOSINOPHIL [3]: 0 CELLS/uL
- ABSOLUTE LYMPHOCYTE [3]: 12322.33 CELLS/uL
- ABSOLUTE MONOCYTE [3]: 322 CELLS/uL
- ABSOLUTE SEGMENTED NEUTROPHIL [3]: 1589 CELLS/uL
- BASOPHIL [3]: 0%
- EOSINOPHIL [3]: 0%
- ERYTHROCYTE COUNT [3]: 5.38 x10E6/uL
- HEMATOCRIT [3]: 34.5%
- HEMOGLOBIN [3]: 12.73 G/DL
- LEUKOCYTE COUNT [3]: 14.23 x10E3/uL
- LYMPHOCYTE [3]: 86.67%
- MEAN CORPUSCULAR HEMOGLOBIN [3]: 23.63 pg
- MEAN CORPUSCULAR HEMOGLOBIN CONCENTRATION [3]: 36.93 G/DL
- MEAN CORPUSCULAR VOLUME [3]: 64 fL
- MONOCYTE [3]: 2.33%
- NEUTROPHIL [3]: 11%
- NUCLEATED RED BLOOD CELLS [3]: 0 /100WBC
- PLATELET COUNT [3]: 1165.33 x10E3/uL
- ABSOLUTE BASOPHIL [4]: 0 CELLS/uL
- ABSOLUTE EOSINOPHIL [4]: 0 CELLS/uL
- ABSOLUTE LYMPHOCYTE [4]: 15128.33 CELLS/uL
- ABSOLUTE MONOCYTE [4]: 349 CELLS/uL
- ABSOLUTE SEGMENTED NEUTROPHIL [4]: 956 CELLS/uL
- BASOPHIL [4]: 0%
- EOSINOPHIL [4]: 0%
- ERYTHROCYTE COUNT [4]: 5.63 x10E6/uL
- HEMATOCRIT [4]: 36.7%
- HEMOGLOBIN [4]: 13.27 G/DL
- LEUKOCYTE COUNT [4]: 16.43 x10E3/uL
- LYMPHOCYTE [4]: 91.67%
- MEAN CORPUSCULAR HEMOGLOBIN [4]: 23.6 pg
- MEAN CORPUSCULAR HEMOGLOBIN CONCENTRATION [4]: 36.17 G/DL
- MEAN CORPUSCULAR VOLUME [4]: 65.3 fL
- MONOCYTE [4]: 2%
- NEUTROPHIL [4]: 6.33%
- NUCLEATED RED BLOOD CELLS [4]: 0 /100WBC
- PLATELET COUNT [4]: 1150.67 x10E3/uL
